The test system of experiment [1] is CD62P (P-selectin) expression on platelets. Description: Platelet CD62P (P-selectin) expression by fluorescence flow cytometry in whole blood of patients before and after anti-platelet therapy and PTCA. Format: in vivo, human. To be noted: for mean CD62P expression (percent positive events): Clopidogrel patients n=29, 300 mg loading dose and PTCA, baseline 9.5±3.3%; for mean CD62P expression (percent positive events) / CD62P percent positive expression / CD62P expression (percent positive events): mean±SE; for CD62P percent positive expression: patients with high baseline platelet activation, baseline 23.4±6.6%, p<0.01; for CD62P expression (percent positive events): abciximab patients n=15, 0.25 mg/kg bolus plus infusion and PTCA, baseline 9.3±4.0%. The method, then:
(§1) Patients. A total of 44 patients who underwent elective percutaneous coronary angioplasty and stenting were evaluated. The study was approved by the institutional committee on human research. Patients were enrolled in the study after informed consent had been obtained. Their baseline variables including age, gender, smoking history, risk factors, antecedents and medication were documented. These patients received either a loading dose of Clopidogrel (300 mg) before the beginning of the PTCA procedure followed by 75 mg daily for 1 month or intravenously a 0.25 mg/kg, bolus of Abciximab before the beginning of the PTCA procedure followed by a 0.125 μg/kg/mn infusion for 12 h.
(§2) Blood collection. Blood was drawn with a 21-gauge needle into EDTA (5 mM) tubes, mixed immediately with the anticoagulant and avoiding frothing during the mixing procedure. The first 1-2 ml of blood were discarded to avoid the effects of traces of thrombin generated during venipuncture. Serum was collected for CRP measurements. Whole blood specimens for measurement of the ADVIA® 120 Hematology System platelet parameters and flow cytometry analysis were taken prior to baseline, 2 hours, and 24 hours after administration of anti-platelet therapy and PTCA. For platelet activation measurements, all specimens were processed within 1 h after blood collection.
Fluorescence flow cytometry analysis. Whole blood samples were fixed with methanol-free paraformaldehyde (final concentration 0.5%). Fixed blood (5 μl) was incubated at room temperature for 15 min in the dark with monoclonal antibody CD61a-FITC. (10 μl) to identify the platelets and CD62P-PE (10 μl) to measure the expression of P-selectin. Platelets labeled with FITC or PE-conjugated isotype control antibody were used as control for nonspecific staining.
Samples were diluted to 1 ml with PBS. FACScan calibration and compensation were performed as recommended by the manufacturer. Five thousand (5,000) CD61a positive events were acquired on the FACScan flow cytometer (Becton Dickinson, Franklin Lakes, N.J.) equipped with Lysis II software. Data analysis was performed using a threshold based on the FITC-fluorescence correlating to the platelet specific binding of CD61a-FITC antibodies. A gate was drawn around the fluorescent platelet population. The CD61a-FITC labeled platelets that were also positive for PE-conjugated activation marker antibody (CD62P) was quantitated and presented as percentage of positive events.
(§3) Patients. A total of 44 patients who underwent elective percutaneous coronary angioplasty and stenting were evaluated Patients were enrolled in the study after informed consent had been obtained. Their baseline variables including age, gender, smoking history and medication were documented. The treatments were assigned based on the angiographic characteristics. Patients with presence of thrombus and high risk vessel disease were assigned to Abciximab. Two thirds (n=29) of patients received a loading dose of Clopidogrel (300 mg) before the beginning of the PTCA procedure followed by 75 mg daily for 1 month. One third (n=15) of patients received a 0.25 mg/kg bolus of Abciximab intravenously before the beginning of the PTCA procedure followed by a 0.125 μg/kg/min infusion for 12 h. These patients also received Clopidogrel a designated number of hours after PTCA.
Collection of blood. Blood was drawn with a 21-gauge needle into EDTA (5 mM) tubes, mixed immediately with the anticoagulant, and avoiding frothing during the mixing procedure. The first 1-2 ml of blood were discarded to avoid the effects and traces of thrombin generated during venipuncture. Universal precautions were taken at all times during phlebotomy. […]
(In general: In flow cytometry, cells or beads pass a laser one at a time.)

Experiment [2] deals with platelets (platelet activation). Put plainly: Mean platelet component concentration (MPC, platelet density) on the ADVIA 120 Hematology System in whole blood of patients before and after anti-platelet therapy and PTCA. Format: in vivo, human. To be noted: for mean MPC level: Clopidogrel patients n=29, baseline 27.8±0.4 g/dL; for mean MPC level / MPC level: mean±SE; for MPC level: abciximab patients n=15, baseline 28.0±0.3 g/dL. The method, then:
as §1, §2
Bayer ADVIA 120 automated hematology system platelet density measurement. The two-dimensional platelet method is based on the analysis of platelets in whole blood by flow cytometry using the ADVIA 120. The system was standardized and calibrated as per the manufacturer's instructions. The ADVIA 120 Hematology System was quality-controlled using TESTpoint Hematology control reagents (Bayer HealthCare, LLC, Tarrytown, N.Y.). The whole blood specimens anticoagulated with EDTA were processed within 1 h after specimen collection. […] See Macey M. G. et al., Cytometry (1999) 38:250-255; Chapman E. S. et al., Thromb. Haemost. (2003) 89:1004-1015; Ahnadi C. E. et al., Thromb. Haemost (2003) 90:940-948. In this study, MPC determinations were acquired as a measure of platelet activation at baseline, 2 hours, and 24 hours after anti-platelet drug therapy.
as §3
Collection of blood. Blood was drawn with a 21-gauge needle into EDTA (5 mM) tubes, mixed immediately with the anticoagulant, and avoiding frothing during the mixing procedure. The first 1-2 ml of blood were discarded to avoid the effects and traces of thrombin generated during venipuncture. Universal precautions were taken at all times during phlebotomy. Whole blood specimens for measurement of the ADVIA 120 System platelet parameters and CD62P-PE flow cytometry analysis were taken prior to baseline, 2 h, 5 h, and 24 h after administration of a loading charge of Clopidogrel and percutaneous transluminal coronary angioplasty (PTCA), and prior to, 10 min, 2 h, and 24 h after administration of the Abciximab bolus and PTCA. All specimens were processed within 1 h after blood collection.
Bayer ADVIA 120 Automated Hematology System platelet density measurement. […]

Experiment [3] deals with platelet activation markers CD62, CD63, and PAC-1. To be noted: after stimulation with ADP or thrombin; healthy subjects and patients after myocardial infarction; cited from earlier work.

On to `COC(=O)[C@H](c1ccccc1Cl)N1CCc2sccc2C1` [Clopidogrel], for which the “mean CD62P expression (percent positive events)” value in experiment [1] (2 h) was 3.1±1.8%; in experiment [1] (5 h) it was 1.2±0.7%; in experiment [1] (24 h) it was 1.8±1.1%. For the same molecule, the “platelet activation as determined by both CD62P decrease and increasing MPC” value in experiment [1] (group of patients with the greatest baseline platelet activation) is recorded as “significant reduction”. In addition, the “CD62P percent positive expression” value was found to be 2.0±1.0% in experiment [1] (2 h), 0.3±0.1% in experiment [1] (5 h) and 1.5±0.5% in experiment [1] (24 h). Besides, the “mean MPC level” value in experiment [2] (2 h) was 28.4 ± 0.3 g/dL; in experiment [2] (5 h), 28.9 ± 0.2 g/dL; in experiment [2] (24 h), 28.7 ± 0.2 g/dL. Further, the MPC value in experiment [2] (patients with high baseline platelet activation, 2 h, baseline 25.7±0.8 g/dL, p<0.01) turned out to be 28.0 ± 0.5 g/dL; in experiment [2] (patients with high baseline platelet activation, 5 h, baseline 25.7±0.8 g/dL, p<0.01), 28.8 ± 0.3 g/dL; in experiment [2] (patients with high baseline platelet activation, 24 h, baseline 25.7±0.8 g/dL, p<0.01) it was 28.4 ± 0.3 g/dL. The “expression of platelet activation markers CD62, CD63, and PAC-1” value in experiment [3] is reported as “suppresses expression”.

`CC(=O)Oc1ccccc1C(=O)O` [aspirin]: the platelet inhibition effect entry in experiment [1] (patients on aspirin therapy before admission, by the classic (CD62P) or new (MPC) platelet activation measurements) is on record as “not demonstrated”.

B1: Abciximab (antibody, chains of the INN, looked up, V domains shown)
VH: EVQLQQSGTVLARPGASVKMSCEASGYTFTNYWMHWVKQRPGQGLEWIGAIYPGNSDTSYIQKFKGKAKLTAVTSTTSVYMELSSLTNEDSAVYYCTLYDGYYVFAYWGQGTLVTVSA
VL: EIVLTQSPVTLSVTPGDSVSLSCRASRDISNNLHWFQQTSHESPRLLIKYASQSMSGIPSRFSGSGSGTDFTLSINSVETEDFGMYFCQQTNSWPYTFGGGTKLEIK
modifications: Fab
notes: the monoclonal antibody, abciximab
Consider B1, for which the “CD62P expression (percent positive events)” value in experiment [1] (2 h) came out at 7.9±5.4%; in experiment [1] (24 h), 0.7±0.3%. In addition, the CD62P-PE value in experiment [1] (one patient, 2 hours after Abciximab and angioplasty, baseline 4.2%, complications of pacemaker installation) is given as 75%. Also, the MPC level in experiment [2] (10 min) turned out to be 27.9 ± 0.3 g/dL; in experiment [2] (2 h), 28.0 ± 0.4 g/dL; in experiment [2] (24 h), 28.4 ± 0.2 g/dL. In experiment [2] (one patient, 2 hours after Abciximab and angioplasty, baseline 28.3 g/dL, complications of pacemaker installation), this molecule displayed an MPC value of 22.8 g/dL.

The record behind these values is patent publication US7723064B2, “Methods for monitoring patients for efficacy of an antiplatelet therapy regimen” (Siemens Healthcare Diagnostics Inc., priority 2004, dated 2010).
